From BindingDB's records for doi:10.1016/j.bmcl.2008.11.037 (Wyeth Research, 2009)
pIC50: −log10 of the molar value.

Target: Insulin-like growth factor 1 receptor (Homo sapiens, UniProt P08069)
Assay: In Vitro Kinase Inhibition Assay
Experimental: Assays were performed in microtiter plates in reaction buffer containing biotinylated substrate, ATP, and purified kinase in the presence of test compounds. After incubation, product was detected using a homogeneous time-resolved fluorescence quenching assay (LANCE).

Chain of Insulin-like growth factor 1 receptor (P08069 31-736 limits assumed): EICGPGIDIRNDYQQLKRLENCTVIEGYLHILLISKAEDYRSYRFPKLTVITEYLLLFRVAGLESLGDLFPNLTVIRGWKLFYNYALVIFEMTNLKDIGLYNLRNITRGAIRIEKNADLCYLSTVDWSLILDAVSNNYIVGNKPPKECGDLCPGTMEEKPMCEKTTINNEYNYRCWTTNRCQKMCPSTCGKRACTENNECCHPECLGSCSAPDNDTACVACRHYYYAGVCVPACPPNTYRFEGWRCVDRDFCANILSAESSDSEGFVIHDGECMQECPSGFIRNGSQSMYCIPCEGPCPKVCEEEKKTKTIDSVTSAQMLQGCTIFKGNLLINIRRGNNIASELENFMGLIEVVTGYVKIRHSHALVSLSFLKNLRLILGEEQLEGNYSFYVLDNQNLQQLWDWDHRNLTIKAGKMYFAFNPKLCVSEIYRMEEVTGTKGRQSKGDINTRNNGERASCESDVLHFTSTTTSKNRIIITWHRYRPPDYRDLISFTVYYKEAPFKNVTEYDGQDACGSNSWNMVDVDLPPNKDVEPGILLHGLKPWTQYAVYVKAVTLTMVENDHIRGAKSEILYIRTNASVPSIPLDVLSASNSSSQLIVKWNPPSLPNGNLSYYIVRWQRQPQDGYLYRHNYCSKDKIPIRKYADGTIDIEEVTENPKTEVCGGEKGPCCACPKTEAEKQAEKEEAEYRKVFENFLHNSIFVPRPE
Chain of Insulin-like growth factor 1 receptor (P08069 741-1367 limits assumed): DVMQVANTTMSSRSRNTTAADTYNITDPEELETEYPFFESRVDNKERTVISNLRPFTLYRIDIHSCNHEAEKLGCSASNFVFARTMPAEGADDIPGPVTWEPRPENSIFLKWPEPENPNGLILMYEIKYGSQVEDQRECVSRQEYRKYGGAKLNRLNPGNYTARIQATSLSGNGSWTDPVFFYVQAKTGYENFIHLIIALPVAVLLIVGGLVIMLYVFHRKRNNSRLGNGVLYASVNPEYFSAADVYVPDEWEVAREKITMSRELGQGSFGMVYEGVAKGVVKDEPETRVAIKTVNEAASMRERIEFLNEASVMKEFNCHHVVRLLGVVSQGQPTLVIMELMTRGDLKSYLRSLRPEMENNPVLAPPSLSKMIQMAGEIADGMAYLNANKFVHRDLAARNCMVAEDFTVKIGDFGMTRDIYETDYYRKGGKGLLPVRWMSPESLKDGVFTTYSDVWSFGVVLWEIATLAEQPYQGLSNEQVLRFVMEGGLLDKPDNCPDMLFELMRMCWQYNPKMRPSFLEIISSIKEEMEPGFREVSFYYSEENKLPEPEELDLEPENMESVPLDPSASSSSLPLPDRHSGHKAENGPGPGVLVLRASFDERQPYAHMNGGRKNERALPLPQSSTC

In the case of COc1cc2c(Nc3ccc(Sc4ncc(C)n4C)c(Cl)c3)c(C#N)cnc2cc1NCCCN(C)C [4-({3-chloro-4-[(1,5-dimethyl-1H-imidazol-2-yl)sulfanyl]phenyl}amino)-7-{[3-(dimethylamino)propyl]amino}-6-methoxyquinoline-3-carbonitrile], the pIC50 (pH 7.5, 22 °C) was 6.54.

Compound CCn1c(Sc2ccc(Nc3c(C#N)cnc4cc(NCCCN5CCOCC5)c(OC)cc34)cc2Cl)nc(C)c1C [4-({3-chloro-4-[(1-ethyl-4,5-dimethyl-1H-imidazol-2-yl)sulfanyl]phenyl}amino)-6-methoxy-7-{[3-(morpholin-4-yl)propyl]amino}quinoline-3-carbonitrile] has a pIC50 (pH 7.5, 22 °C) of 7.70.

In the case of COc1cc2c(Nc3ccc(Sc4ccccc4)cc3)c(C#N)cnc2cc1OCCCN1CCOCC1 [6-methoxy-7-[3-(morpholin-4-yl)propoxy]-4-{[4-(phenylsulfanyl)phenyl]amino}quinoline-3-carbonitrile], the pIC50 was 5.96.

CCOC(=O)C1CCN(CCCOc2cc3ncc(C#N)c(Nc4ccc(Sc5nc(C)c(C)n5CC)c(Cl)c4)c3cc2OC)CC1 [ethyl 1-(3-{[4-({3-chloro-4-[(1-ethyl-4,5-dimethyl-1H-imidazol-2-yl)sulfanyl]phenyl}amino)-3-cyano-6-methoxyquinolin-7-yl]oxy}propyl)piperidine-4-carboxylate] was tested, and the pIC50 (pH 7.5, 22 °C) was 6.87.

In the case of CCn1c(Sc2ccc(Nc3c(C#N)cnc4cc(OCCCN5CCN(CCOC(N)=O)CC5)c(OC)cc34)cc2Cl)nc(C)c1C [{2-[4-(3-{[4-({3-chloro-4-[(1-ethyl-4,5-dimethyl-1H-imidazol-2-yl)sulfanyl]phenyl}amino)-3-cyano-6-methoxyquinolin-7-yl]oxy}propyl)piperazin-1-yl]ethyl} carbamate], the pIC50 was 7.77.
